Reference: patent US8809001B2, “High throughput assays for inhibitors and activators of PAQR receptors” (University of Florida Research Foundation, Inc., priority 2007, dated 2014)
Like-named read-outs stand apart in the source and are kept apart here.

Tests used:
mPRα = target: T1, mPRα (Homo sapiens, UniProt Q86WK9); assay: cell-based; conditions: for activation of mPRα, alterations at the 17 and 21 positions of the pregnane ring (in words): further analysis of mPRα (pRS316 plasmid, 2% galactose per FIG. 7C); for agonist activity on mPRα (in words): FET3-lacZ, steroids up to 10 μM
T1 construct: Full length and truncated mPRγ and mPRα were expressed in wild type cells grown in 2% galactose from the pGREG536 vector; expressed in transfected cells; host or cells: Saccharomyces cerevisiae (BY4742 wild type; also gpa mutants), GAL1-driven plasmids (TPI1 promoter in pJK90)
T1 sequence (Q86WK9 1-346): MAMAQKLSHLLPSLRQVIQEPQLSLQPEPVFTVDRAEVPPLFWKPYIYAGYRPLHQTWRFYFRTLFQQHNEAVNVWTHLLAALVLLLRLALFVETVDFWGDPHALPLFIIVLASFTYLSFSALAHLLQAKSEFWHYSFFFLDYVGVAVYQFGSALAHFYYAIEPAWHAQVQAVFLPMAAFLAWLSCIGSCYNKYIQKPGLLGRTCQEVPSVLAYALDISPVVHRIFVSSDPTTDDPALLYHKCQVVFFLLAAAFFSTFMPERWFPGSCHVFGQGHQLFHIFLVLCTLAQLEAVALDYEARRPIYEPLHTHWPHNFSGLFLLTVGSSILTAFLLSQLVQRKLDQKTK
Excerpt: Plasmids and primers. Human PAQRs were cloned into various vectors by PCR from commercially/publically available cDNAs. […] The OST4 open reading frame in pJK90 was replaced with the PAQR6 and mPRα open reading frames by gap repair. Primers for all cloning reactions are listed herein. Proteins expressed in pYES260 have an N-terminal 6×-histidine tag followed by a TEV protease cleavage site. Proteins expressed in pGREG536 have an N-terminal 7×-HA tag. Proteins expressed in the pRS316 vector are untagged. The pYES260, pRS316 and pGREG536 vectors allow for galactose-inducible expression via the GAL1 promoter. […] A pRS316-based plasmid containing the STE2 gene under the control of the GAL1 promoter (Feng et al., 2000) was kindly provided by Dr. Nicholas G. Davis (Wayne State University).
Assays and growth conditions. Strains were maintained using standard protocol and grown in synthetic defined (SD) media with the appropriate amino acids to match the auxotrophies of the individual strains. […] In brief, overnights of cells grown in SD-glucose media were re-inoculated into iron-deficient LIM to induce the expression of FET3. […] All ligands were added to the growth medium upon re-inoculation into LIM. For experiments in which steroids were added as ligands, steroids were added from ethanol stocks and “untreated” controls are actually treated with an equal volume of ethanol to control for vehicle effects. […] All experiments were performed at least three times and a representative experiment is shown. EC50 values were obtained using the web-based BioDataFit software using sigmoidal curve-fitting. (web site changbioscience.com/stat/ec50.html)

mPRγ = target: T2, mPRγ (Homo sapiens, UniProt Q9NXK6); assay: FET3-lacZ reporter repression in yeast expressing mPRγ; format: cell-based; conditions: for agonist activity on mPRγ (in words): FET3-lacZ, steroids up to 10 μM
T2 construct: Full length and truncated mPRγ and mPRα were expressed in wild type cells grown in 2% galactose from the pGREG536 vector; expressed in transfected cells; host or cells: Saccharomyces cerevisiae (BY4742 wild type; also gpa mutants), GAL1-driven plasmids
T2 sequence (Q9NXK6 1-330): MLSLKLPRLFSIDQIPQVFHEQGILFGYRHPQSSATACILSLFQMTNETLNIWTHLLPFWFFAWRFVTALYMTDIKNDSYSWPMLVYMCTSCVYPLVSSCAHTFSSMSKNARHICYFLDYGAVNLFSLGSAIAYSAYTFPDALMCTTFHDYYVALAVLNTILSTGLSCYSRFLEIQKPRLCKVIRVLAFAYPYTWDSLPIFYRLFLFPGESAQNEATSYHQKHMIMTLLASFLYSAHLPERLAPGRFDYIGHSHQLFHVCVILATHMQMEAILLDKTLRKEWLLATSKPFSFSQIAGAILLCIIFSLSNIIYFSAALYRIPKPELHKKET
Excerpt: Plasmids and primers. Human PAQRs were cloned into various vectors by PCR from commercially/publically available cDNAs. PAQRs were cloned into the pYES260 (Melcher, 2000), pRS316 (Liu et al., 1992) or pGREG536 (Jansen et al., 2005) expression vectors using gap repair. The pJK90 plasmid containing a Dual Topology Reporter (DTR)-tagged OST4 gene driven by the constitutive TPI1 promoter was kindly provided by Dr. Gunnar von Heijne (Stockholm University) (Kim et al., 2003). The OST4 open reading frame in pJK90 was replaced with the PAQR6 and mPRα open reading frames by gap repair. Primers for all cloning reactions are listed herein. Proteins expressed in pYES260 have an N-terminal 6×-histidine tag followed by a TEV protease cleavage site. Proteins expressed in pGREG536 have an N-terminal 7×-HA tag. Proteins expressed in the pRS316 vector are untagged. The pYES260, pRS316 and pGREG536 vectors allow for galactose-inducible expression via the GAL1 promoter. […] The FET3-lacZ plasmid was previously described (Kupchak et al., 2007). Plasmids derived from pADM4 carrying hyperactive alleles of Gpa1p (Gpa1p^Q323L) (Slessareva et al., 2006) and Gpa2p (Gpa2p^Q300L) (Harashima et al., 2002) driven by the ADH1 promoter were kindly provided by Dr. Henrik Dohlman (UNC Chapel Hill). A pRS316-based plasmid containing the STE2 gene under the control of the GAL1 promoter (Feng et al., 2000) was kindly provided by Dr. Nicholas G. Davis (Wayne State University).
(§1) Assays and growth conditions. Strains were maintained using standard protocol and grown in synthetic defined (SD) media with the appropriate amino acids to match the auxotrophies of the individual strains. Low Iron Medium (LIM) contains EDTA to limit iron-bioavailability and its composition has been previously described (Kupchak et al., 2007). […] In brief, overnights of cells grown in SD-glucose media were re-inoculated into iron-deficient LIM to induce the expression of FET3. 2% galactose was used as a carbon source to induce full expression of PAQR genes driven by the GAL1 promoter, while 0.05% galactose/1.95% raffinose was used for reduced PAQR expression. All ligands were added to the growth medium upon re-inoculation into LIM. For experiments in which steroids were added as ligands, steroids were added from ethanol stocks and “untreated” controls are actually treated with an equal volume of ethanol to control for vehicle effects. Cells were allowed to grow to mid-log phase at which time the activity of the FET3 gene was monitored using a FET3-lacZ promoter-reporter construct. lacZ activities are presented as a percentage of activity seen in untreated cells expressing the appropriate empty expression vector control. For individual experiments, each data point has been done in triplicate and the error bars represent +/−1 standard deviation. All experiments were performed at least three times and a representative experiment is shown. EC50 values were obtained using the web-based BioDataFit software using sigmoidal curve-fitting. (web site changbioscience.com/stat/ec50.html)

FET3 = assay: FET3-lacZ reporter in wild type yeast carrying empty expression plasmid; format: cell-based, Saccharomyces cerevisiae; conditions: no human PAQR
Excerpt: as §1

[1] = read-out: EC50 for the activation of mPRα

| Compound | activation of mPRα, alterations at the 17 and 21 positions of the pregnane ring (in words) (mPRα) | agonist activity on mPRα (in words) (mPRα) | agonist activity on mPRγ (in words) (mPRγ) | EC50 (mPRα; [1]) [µM] | other results |
| --- | --- | --- | --- | --- | --- |
| C[C@]12CCC(=O)C=C1CC[C@@H]1[C@@H]2[C@@H](O)C[C@@]2(C)[C@H]1CC[C@]2(O)C(=O)CO [11β,17α,21-trihydroxyprogesterone] | ineffective agonist |  |  |  |  |
| C[C@]12CC[C@H]3[C@@H](CCC4=CC(=O)CC[C@@]43C)[C@@H]1CC[C@@H]2O [testosterone] |  | no agonist activity | no agonist activity |  | increase of the EC50 of progesterone for mPRγ (mPRγ; in the presence of 10 μM of the named steroid): 10 fold |
| CC#C[C@]1(O)CC[C@H]2[C@@H]3CCC4=CC(=O)CCC4=C3[C@@H](c3ccc(N(C)C)cc3)C[C@@]21C [RU-486, Mifepristone] |  | weak agonist | weak agonist |  | EC50 (mPRα; EC50, mPRα, ligand alone): 11 µM; effect of ligand on FET3 in cells carrying empty expression plasmid (FET3): had no effect; increase in the EC50 of progesterone for the activation of mPRγ (mPRγ; exposure of cells to 100 nM RU-486): 15 fold; antagonism of mPRγ (mPRγ; in the presence of 100 nM progesterone, effect disappears at higher concentrations): weakly antagonizes; EC50 (mPRγ; mPRγ column of Table 4, ligand alone): 6.8 µM; EC50 (mPRγ; mPRγ, weak agonist at high concentrations): > 5 µM |
| C[C@]12CC[C@H]3[C@@H](CCC4=CC(=O)CC[C@@]43C)[C@@H]1CC[C@@H]2C(=O)CO [21-hydroxyprogesterone] | similarly effective activators |  |  | ~0.01 |  |
| C[C@]12CCC(=O)C=C1CC[C@@H]1[C@@H]2CC[C@@]2(C)[C@H]1CC[C@]2(O)C(=O)CO [17α,21-dihydroxyprogesterone] | similarly effective activators |  |  | ~0.01 |  |
